Laboratory results taken from patent US9765034B2, “5-halogenopyrazole biphenylcarboxamides” (BAYER CROPSCIENCE AG, priority 2012, dated 2017).

tested on: Alternaria brassicae; experiment: In vivo preventive test on Alternaria brassicae (leaf spot on radish); conditions: radish plants, preventive spray, 500 ppm, grading 6 days after contamination
Experimental: Example: In Vivo Preventive Test on Alternaria brassicae (Leaf Spot on Radish) […] Radish plants (“Pernod Clair” variety), sown in starter cups on a 50/50 peat soil-pozzolana substrate and grown at 17° C., are treated at the cotyledon stage by spraying with the active ingredient prepared as described above. Plants, used as controls, are treated with the mixture of acetone/tween/DMSO/water not containing the active material. After 24 hours, the plants are contaminated by spraying the cotyledons with an aqueous suspension of Alternaria brassicae spores (50 000 spores per ml). The spores are collected from a 15-day-old culture. […] Grading (% of efficacy) is carried out 6 days after the contamination, in comparison with the control plants. Under these conditions, good (at least 70%) or total protection is observed at a dose of 500 ppm with the following compounds: […]

SMILES	Eff. %
CCON=Cc1ccc(-c2c(F)cccc2NC(=O)c2c(C(F)F)nn(C)c2Cl)cc1 [Example 40]	94%
CON=Cc1ccc(-c2c(F)cccc2NC(=O)c2c(C(F)F)nn(C)c2Cl)cc1 [Example 28]	92%
CON=Cc1ccc(-c2ccccc2NC(=O)c2c(C(F)F)nn(C)c2Cl)cc1C(F)(F)F [Example 24]	92%

tested on: Botrytis cinerea; experiment: In vivo preventive test on Botrytis cinerea (grey mould); conditions: gherkin plants, preventive spray, 500 ppm, grading 4 to 5 days after contamination
Experimental: Example: In Vivo Preventive Test on Botrytis cinerea (Grey Mould) […] Gherkin plants (“Vert petit de Paris” variety), sown in starter cups on a 50/50 peat soil-pozzolana substrate and grown at 24° C., are treated at the Z11 cotyledon stage by spraying with the active ingredient prepared as described above. Plants, used as controls, are treated with the mixture of acetone/tween/DMSO/water not containing the active material. After 24 hours, the plants are contaminated by spraying the cotyledons with an aqueous suspension of cryopreserved Botrytis cinerea spores (50 000 spores per ml). The spores are suspended in a nutrient solution composed of 10 g/L of PDB, 50 g/L of D-Fructose, 2 g/L of NH4NO3 and 1 g/L of KH2PO4. […] Grading (% of efficacy) is carried out 4 to 5 days after the contamination, in comparison with the control plants. Under these conditions, good (at least 70%) or total protection is observed at a dose of 500 ppm with the following compounds: […]

SMILES	Eff. %
CC#CCON=C(C)c1ccc(-c2ccccc2NC(=O)c2c(C(F)F)nn(C)c2F)cc1 [Example 13]	80%
CC#CCON=Cc1ccc(-c2ccccc2NC(=O)c2c(C(F)F)nn(C)c2F)cc1 [Example 21]	98%

tested on: Phytophthora infestans; experiment: not given; format: in vivo; conditions: tomato plants, preventive spray, 500 ppm, grading 5 days after contamination

SMILES	Eff. %
C#CCON=C(C)c1ccc(-c2ccccc2NC(=O)c2c(C(F)F)nn(C)c2Cl)cc1 [Example 3]	99%

tested on: Pyrenophora teres; experiment: In vivo preventive test on Pyrenophora teres (net blotch on barley); conditions: barley plants, preventive spray, 500 ppm, grading 14 days after contamination
Experimental: Example: In Vivo Preventive Test on Pyrenophora teres (Net Blotch on Barley) […] Barley plants (“Plaisant” variety), sown in starter cups on a 50/50 peat soil-pozzolana substrate and grown at 22° C., are treated at the 1-leaf stage (10 cm height) by spraying with the active ingredient prepared as described above. Plants, used as controls, are treated with the mixture of acetone/tween/DMSO/water not containing the active material. After 24 hours, the plants are contaminated by spraying the leaves with an aqueous suspension of Pyrenophora teres spores (12 000 spores per ml). The spores are collected from a 12-day-old culture. […] Grading (% of efficacy) is carried out 14 days after the contamination, in comparison with the control plants. Under these conditions, good (at least 70%) or total protection is observed at a dose of 500 ppm with the following compounds: […]

SMILES	Eff. %
CC#CCON=C(C)c1ccc(-c2ccccc2NC(=O)c2c(C(F)F)nn(C)c2F)cc1 [Example 13]	88%
CCON=Cc1ccc(-c2c(F)cccc2NC(=O)c2c(C(F)F)nn(C)c2Cl)cc1 [Example 40]	90%
CC#CCON=Cc1ccc(-c2ccccc2NC(=O)c2c(C(F)F)nn(C)c2F)cc1 [Example 21]	88%
CON=Cc1ccc(-c2c(F)cccc2NC(=O)c2c(C(F)F)nn(C)c2Cl)cc1 [Example 28]	93%
CON=Cc1ccc(-c2ccccc2NC(=O)c2c(C(F)F)nn(C)c2Cl)cc1C(F)(F)F [Example 24]	97%

tested on: Puccinia recondita; experiment: In vivo preventive test on Puccinia recondita (brown rust on wheat); conditions: wheat plants, preventive spray, 500 ppm, grading 12 days after contamination
Experimental: Example: In Vivo Preventive Test on Puccinia recondita (Brown Rust on Wheat) […] Wheat plants (“Scipion” variety), sown in starter cups on a 50/50 peat soil-pozzolana substrate and grown at 22° C., are treated at the 1-leaf stage (10 cm height) by spraying with the active ingredient prepared as described above. Plants, used as controls, are treated with the mixture of acetone/tween/DMSO/water not containing the active material. After 24 hours, the plants are contaminated by spraying the leaves with an aqueous suspension of Puccinia […] spores (100 000 spores per ml). […] Grading (% of efficacy) is carried out 12 days after the contamination, in comparison with the control plants. Under these conditions, good (at least 70%) or total protection is observed at a dose of 500 ppm with the following compounds: […]

SMILES	Eff. %
C#CCON=C(C)c1ccc(-c2ccccc2NC(=O)c2c(C(F)F)nn(C)c2Cl)cc1 [Example 3]	98%
CC#CCON=C(C)c1ccc(-c2ccccc2NC(=O)c2c(C(F)F)nn(C)c2Cl)cc1 [Example 27]	98%
CC#CCON=C(C)c1ccc(-c2ccccc2NC(=O)c2c(C(F)F)nn(C)c2F)cc1 [Example 13]	100%
CCON=Cc1ccc(-c2c(F)cccc2NC(=O)c2c(C(F)F)nn(C)c2Cl)cc1 [Example 40]	97%
CC#CCON=Cc1ccc(-c2ccccc2NC(=O)c2c(C(F)F)nn(C)c2F)cc1 [Example 21]	94%
CON=Cc1ccc(-c2c(F)cccc2NC(=O)c2c(C(F)F)nn(C)c2Cl)cc1 [Example 28]	89%
CON=Cc1ccc(-c2ccccc2NC(=O)c2c(C(F)F)nn(C)c2Cl)cc1C(F)(F)F [Example 24]	100%

tested on: Septoria tritici; experiment: In vivo preventive test on Septoria tritici (leaf spot on wheat); conditions: wheat plants, preventive spray, 500 ppm, grading 24 days after contamination
Experimental: Example: In Vivo Preventive Test on Septoria tritici (Leaf Spot on Wheat) […] Wheat plants (“Scipion” variety), sown in starter cups on a 50/50 peat soil-pozzolana substrate and grown at 22° C., are treated at the 1-leaf stage (10 cm height) by spraying with the active ingredient prepared as described above. Plants, used as controls, are treated with the mixture of acetone/tween/DMSO/water not containing the active material. After 24 hours, the plants are contaminated by spraying the leaves with an aqueous suspension of cryopreserved Septoria tritici spores (500 000 spores per ml). […] Grading (% of efficacy) is carried out 24 days after the contamination, in comparison with the control plants. Under these conditions, good (at least 70%) or total protection is observed at a dose of 500 ppm with the following compounds: […]

SMILES	Eff. %
CC#CCON=C(C)c1ccc(-c2ccccc2NC(=O)c2c(C(F)F)nn(C)c2Cl)cc1 [Example 27]	70%
CC#CCON=C(C)c1ccc(-c2ccccc2NC(=O)c2c(C(F)F)nn(C)c2F)cc1 [Example 13]	80%
CCON=Cc1ccc(-c2c(F)cccc2NC(=O)c2c(C(F)F)nn(C)c2Cl)cc1 [Example 40]	75%
CC#CCON=Cc1ccc(-c2ccccc2NC(=O)c2c(C(F)F)nn(C)c2F)cc1 [Example 21]	96%
CON=Cc1ccc(-c2c(F)cccc2NC(=O)c2c(C(F)F)nn(C)c2Cl)cc1 [Example 28]	92%
CON=Cc1ccc(-c2ccccc2NC(=O)c2c(C(F)F)nn(C)c2Cl)cc1C(F)(F)F [Example 24]	92%

tested on: Sphaerotheca fuliginea; experiment: In vivo preventive test on Sphaerotheca fuliginea (powdery mildew on cucurbits); conditions: gherkin plants, preventive spray, 500 ppm, grading 12 days after contamination
Experimental: Example: In Vivo Preventive Test on Sphaerotheca fuliginea (Powdery Mildew on Cucurbits) […] Gherkin plants (“Vert petit de Paris” variety), sown in starter cups on a 50/50 peat soil-pozzolana substrate and grown at 24° C., are treated at the Z11 cotyledon stage by spraying with the active ingredient prepared as described above. Plants, used as controls, are treated with the mixture of acetone/tween/DMSO/water not containing the active material. After 24 hours, the plants are contaminated by spraying the cotyledons with an aqueous suspension of Sphaerotheca fuliginea spores (100 000 spores per ml). The spores are collected from infected plants. […] Grading (% of efficacy) is carried out 12 days after the contamination, in comparison with the control plants. Under these conditions, good (at least 70%) or total protection is observed at a dose of 500 ppm with the following compounds: […]

SMILES	Eff. %
C#CCON=C(C)c1ccc(-c2ccccc2NC(=O)c2c(C(F)F)nn(C)c2Cl)cc1 [Example 3]	70%
CC#CCON=C(C)c1ccc(-c2ccccc2NC(=O)c2c(C(F)F)nn(C)c2Cl)cc1 [Example 27]	100%
CC#CCON=C(C)c1ccc(-c2ccccc2NC(=O)c2c(C(F)F)nn(C)c2F)cc1 [Example 13]	100%
CCON=Cc1ccc(-c2c(F)cccc2NC(=O)c2c(C(F)F)nn(C)c2Cl)cc1 [Example 40]	100%
CC#CCON=Cc1ccc(-c2ccccc2NC(=O)c2c(C(F)F)nn(C)c2F)cc1 [Example 21]	100%
CON=Cc1ccc(-c2c(F)cccc2NC(=O)c2c(C(F)F)nn(C)c2Cl)cc1 [Example 28]	100%
CON=Cc1ccc(-c2ccccc2NC(=O)c2c(C(F)F)nn(C)c2Cl)cc1C(F)(F)F [Example 24]	100%

tested on: Uromyces appendiculatus; experiment: In vivo preventive test on Uromyces appendiculatus (bean rust); conditions: bean plants, preventive spray, 500 ppm, grading 11 days after contamination
Experimental: Example: In Vivo Preventive Test on Uromyces appendiculatus (Bean Rust) […] Bean plants (“Saxa” variety), sown in starter cups on a 50/50 peat soil-pozzolana substrate and grown at 24° C., are treated at the 2-leaf stage (9 cm height) by spraying with the active ingredient prepared as described above. Plants, used as controls, are treated with the mixture of acetone/tween/DMSO/water not containing the active material. After 24 hours, the plants are contaminated by spraying the leaves with an aqueous suspension of Uromyces appendiculatus spores (150 000 spores per ml). […] Grading (% of efficacy) is carried out 11 days after the contamination, in comparison with the control plants. Under these conditions, good (at least 70%) or total protection is observed at a dose of 500 ppm with the following compounds: […]

SMILES	Eff. %
C#CCON=C(C)c1ccc(-c2ccccc2NC(=O)c2c(C(F)F)nn(C)c2Cl)cc1 [Example 3]	100%
CC#CCON=C(C)c1ccc(-c2ccccc2NC(=O)c2c(C(F)F)nn(C)c2Cl)cc1 [Example 27]	100%
CC#CCON=C(C)c1ccc(-c2ccccc2NC(=O)c2c(C(F)F)nn(C)c2F)cc1 [Example 13]	100%
CCON=Cc1ccc(-c2c(F)cccc2NC(=O)c2c(C(F)F)nn(C)c2Cl)cc1 [Example 40]	100%
CC#CCON=Cc1ccc(-c2ccccc2NC(=O)c2c(C(F)F)nn(C)c2F)cc1 [Example 21]	100%
CON=Cc1ccc(-c2c(F)cccc2NC(=O)c2c(C(F)F)nn(C)c2Cl)cc1 [Example 28]	100%
CON=Cc1ccc(-c2ccccc2NC(=O)c2c(C(F)F)nn(C)c2Cl)cc1C(F)(F)F [Example 24]	100%

tested on: Phakopsora pachyrhizi; experiment: In vivo Phakopsora test (soybeans)/preventive; conditions: preventive, 100 ppm of active ingredient, evaluated 7 days after inoculation
Experimental: Example: In Vivo Phakopsora Test (Soybeans)/Preventive Solvent: 24.5 parts by weight of acetone • 24.5 parts by weight of dimethylacetamide Emulsifier: • 1 part by weight of alkylaryl polyglycol ether To produce a suitable preparation of active compound, 1 part by weight of active compound is mixed with the stated amounts of solvent and emulsifier, and the concentrate is diluted with water to the desired concentration. To test for preventive activity, young plants are sprayed with the preparation of active compound at the stated rate of application. After the spray coating has dried on, the plants are inoculated with an aqueous to spore suspension of the causal agent of soybean rust (Phakopsora pachyrhizi) and stay for 24 h without light in an incubation cabinet at approximately 24° C. and a relative atmospheric humidity of 95%.

SMILES	Eff. %
CC#CCON=C(C)c1ccc(-c2ccccc2NC(=O)c2c(C(F)F)nn(C)c2Cl)cc1 [Example 27]	100%
CC#CCON=C(C)c1ccc(-c2ccccc2NC(=O)c2c(C(F)F)nn(C)c2F)cc1 [Example 13]	100%

tested on: not listed separately; experiment: logP by HPLC on reversed phase columns (EEC directive 79/831 Annex V.A8); conditions: method [a]: LC-MS at pH 2.7, 0.1% formic acid in water / acetonitrile gradient 10% to 95%

SMILES	logP
C#CCON=C(C)c1ccc(-c2ccccc2NC(=O)c2c(C(F)F)nn(C)c2Cl)cc1 [Example 3]	4.06[a]
CC#CCON=C(C)c1ccc(-c2ccccc2NC(=O)c2c(C(F)F)nn(C)c2Cl)cc1 [Example 27]	4.41[a]
CC#CCON=C(C)c1ccc(-c2ccccc2NC(=O)c2c(C(F)F)nn(C)c2F)cc1 [Example 13]	4.11[a]
CCON=Cc1ccc(-c2c(F)cccc2NC(=O)c2c(C(F)F)nn(C)c2Cl)cc1 [Example 40]	4.18[a]
CC#CCON=Cc1ccc(-c2ccccc2NC(=O)c2c(C(F)F)nn(C)c2F)cc1 [Example 21]	3.87[a]
CON=Cc1ccc(-c2c(F)cccc2NC(=O)c2c(C(F)F)nn(C)c2Cl)cc1 [Example 28]	3.76[a]
CON=Cc1ccc(-c2ccccc2NC(=O)c2c(C(F)F)nn(C)c2Cl)cc1C(F)(F)F [Example 24]	4.25[a]
